Among the test systems are HOP-92 NSCLC; UO-31 renal; EKVX NSCLC; NCI-H23 lung; NCI/ADR-RES ovarian; HS 578T breast; HOP-62 NSCLC; SF-268 CNS; COLO 205 colon; NCI-H460 lung; MDA-MB-435; LOX IMVI melanoma; SF-539 CNS; CAKI-1 renal; TK-10 renal; SR leukemia; MDA-N; HCC-2998 colon; SK-OV-3 ovarian; BT-549 breast.
Assay in all cases: NCI tumour cell line growth inhibition, 48 h

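These data come from cells grown in 96-well plates and exposed to compound for 48 hours at five concentrations. TGI denotes the concentration required for complete inhibition of growth.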

We go through 7 molecules from PubChem BioAssay (NCI).

Consider `CO[C@@H]1C[C@H]2[C@@H]3CC[C@H]([C@H](C)COC(C)=O)[C@@]3(C)CC[C@@H]2[C@@]2(C)CC[C@H]3C[C@]312`, for which the TGI with HOP-92 NSCLC, in the test on UO-31 renal, in the test on EKVX NSCLC, in the test with NCI-H23 lung, with NCI/ADR-RES ovarian and in the test on HS 578T breast was > 100 µM in each case. For the same molecule, the TGI in the test on HOP-62 NSCLC, with SF-268 CNS, in the test on COLO 205 colon, with NCI-H460 lung, in the test with MDA-MB-435 and with LOX IMVI melanoma was > 100 µM each time. Moreover, the TGI in the test on SF-539 CNS, in the test on CAKI-1 renal, in the test on TK-10 renal, in the test with SR leukemia, with MDA-N and in the test on HCC-2998 colon was > 100 µM in each case.
Turning to `CCCCCCc1cc2cc(-c3cn4c(n3)sc3ccccc34)c(=O)oc2cc1O`, the TGI in the test on HOP-92 NSCLC, in the test on UO-31 renal, in the test with EKVX NSCLC, in the test on SK-OV-3 ovarian, with NCI-H23 lung and in the test on NCI/ADR-RES ovarian was > 100 µM each time. For the same molecule, the TGI is > 72.1 µM in the test with HS 578T breast; > 100 µM in the test with HOP-62 NSCLC; > 100 µM with BT-549 breast; > 100 µM with SF-268 CNS; > 100 µM in the test on COLO 205 colon; > 100 µM in the test on NCI-H460 lung. Further, the TGI in the test on MDA-MB-435, with LOX IMVI melanoma, in the test with SF-539 CNS, in the test with CAKI-1 renal, in the test on TK-10 renal and in the test on SR leukemia was > 100 µM each time. Moreover, in the test with HCC-2998 colon, the TGI was > 100 µM.
With `COc1cc2c(c(OC)c1OC)C(=O)[C@@H](O)[C@H]2NC(N)=O`, the TGI with UO-31 renal, in the test with EKVX NSCLC, with NCI-H23 lung, in the test with NCI/ADR-RES ovarian, in the test with HS 578T breast and with HOP-62 NSCLC was > 100 µM throughout. In addition, the TGI in the test with SF-268 CNS, in the test with COLO 205 colon, in the test with NCI-H460 lung, in the test on MDA-MB-435, with LOX IMVI melanoma and with SF-539 CNS was > 100 µM throughout. In addition, the TGI in the test with CAKI-1 renal, in the test with TK-10 renal, with MDA-N and with HCC-2998 colon was > 100 µM in each case.
On to `O=c1[nH]nc(-c2ccccc2)n1-c1cccc([N+](=O)[O-])c1`, for which the TGI with HOP-92 NSCLC, in the test with UO-31 renal, in the test with EKVX NSCLC, with SK-OV-3 ovarian, in the test with NCI-H23 lung and in the test on NCI/ADR-RES ovarian was > 100 µM throughout. In addition, the TGI in the test with HS 578T breast, in the test on HOP-62 NSCLC, in the test with SF-268 CNS, with COLO 205 colon, with NCI-H460 lung and in the test with MDA-MB-435 was > 100 µM throughout. In addition, the TGI in the test on LOX IMVI melanoma, in the test with SF-539 CNS, in the test with CAKI-1 renal, in the test on TK-10 renal, in the test with SR leukemia and with MDA-N was > 100 µM each time. In the test on HCC-2998 colon, the TGI was > 100 µM.
With `COC1(OC)N=C(N)C2(C#N)C(C)=C3NCN(C)N=C3C12C#N` (configuration not stated), the TGI in the test on HOP-92 NSCLC, in the test on UO-31 renal, with EKVX NSCLC, in the test on SK-OV-3 ovarian, in the test with NCI-H23 lung and with NCI/ADR-RES ovarian was > 100 µM each time. The TGI in the test on HS 578T breast, in the test with HOP-62 NSCLC, in the test on SF-268 CNS, in the test on COLO 205 colon, in the test on MDA-MB-435 and in the test on LOX IMVI melanoma was > 100 µM in each case. Besides, the TGI in the test with SF-539 CNS, with CAKI-1 renal, in the test on TK-10 renal, in the test on MDA-N and with HCC-2998 colon was > 100 µM in each case.
As for `O=C(O/N=c1/ccc(=O)/c(=N\OC(=O)c2ccccc2)c1=O)c1ccccc1`, the TGI in the test with HOP-92 NSCLC, in the test with UO-31 renal, in the test on EKVX NSCLC, in the test on SK-OV-3 ovarian, with NCI-H23 lung and with NCI/ADR-RES ovarian was > 100 µM in each case. For the same molecule, the TGI in the test on HS 578T breast, with HOP-62 NSCLC, in the test with SF-268 CNS, in the test with COLO 205 colon, in the test with NCI-H460 lung and with MDA-MB-435 was > 100 µM in each case. Further, the TGI with LOX IMVI melanoma, with SF-539 CNS, with CAKI-1 renal, in the test with TK-10 renal, with SR leukemia and with MDA-N was > 100 µM in each case. Besides, the TGI in the test on HCC-2998 colon was > 100 µM.
Turning to `CCOC(=O)c1csc(C(CSCc2ccc(OC)cc2)N2C(=O)c3ccccc3C2=O)n1` (configuration not stated), the TGI with HOP-92 NSCLC, in the test on UO-31 renal, in the test with EKVX NSCLC, in the test on SK-OV-3 ovarian, in the test with NCI-H23 lung and in the test on NCI/ADR-RES ovarian was > 100 µM in each case. Also, the TGI in the test on HS 578T breast, with HOP-62 NSCLC, with BT-549 breast, in the test with SF-268 CNS, with COLO 205 colon and in the test on NCI-H460 lung was > 100 µM each time. The TGI with MDA-MB-435, with LOX IMVI melanoma, with SF-539 CNS, with CAKI-1 renal, in the test with TK-10 renal and with SR leukemia was > 100 µM each time. Moreover, the TGI in the test with HCC-2998 colon is > 100 µM.
